Experimental data from patent US10000469B2, “Heat shock protein 70 (hsp-70) receptor ligands” (Duke University, priority 2014, dated 2018).

How the values were obtained:
[1] = biological target: Hsp70i (Homo sapiens, UniProt P0DMV8); experiment: Thermofluor assay, purified Hsp70i; format: binding; parameters: Full length Hsp70 (black arrow) and tryptic fragments (blue arrows); His tag (cleaved yes); made in house; conditions: for effect on Tm of Hsp70i: compound alone; for increase of the Tm of Hsp70i: nucleotide alone, FIG. 4E/4G
Protocol: Protein Purification: Plasmids were provided for human HSPA1A, HSPA8, and HSPA1A C306D. Plasmids were transformed in Rosetta competent cells and single colonies were picked from streaked LB/ampicillin/chloramphenicol plates. Cultures were grown at 37° C. for 4-6 hours, were cooled to 15° C. and expression was induced overnight with 200 uM isopropyl 1-thio-β-D-galactopyranoside. Cells were pelleted and resuspended in Ni-lysis buffer (50 mM Na2HPO4, 300 mM NaCl, 10 mM Imidazole, 0.05% Tween-20) supplemented with Complete Mini protease inhibitor tablets (Roche, Mannheim, Germany) and […], and then sonicated. The cells were again pelleted and the supernatant was incubated with complete His-Tag purification resin (Roche, Mannheim, Germany) for 5 hours at 4° C. The resin was washed with Ni-wash buffer (50 mM Na2HPO4, 300 mM NaCl, 20 mM Imidazole, 0.05% Tween-20) and eluted with Ni-elution buffer (50 mM Na2HPO4, 300 mM NaCl, 250 mM Imidazole, 0.05% Tween-20). The elution was then incubated with tobacco etch virus protease overnight at 4° C. The following day the elution was incubated with the γ-phosphate ATP sepharose resin for 30 minutes at 4° C. Next the resin was washed with ATP-wash buffer (50 mMTris-HCl, 60 mM MgCl2, 60 mM KCl, 10 mM Citrate) supplemented with 1 mM DTT and then ATP-wash buffer supplemented with 2 mM ATP was added to the resin to elute the protein. The final elutions were concentrated in Amicon Ultra-15 Centrifugal Filter Units (EMD Millipore, Billerica, Mass.) and buffer exchanged into 25 mM HEPES, 5 mM MgCl2, 10 mM KCl (pH 7.5) and stored at −80° C. until use.
(§1) Thermofluor Assay: SYPRO orange (Molecular Probes, Eugene, Oreg.) was diluted 1:1000 in 25 mM HEPES, 5 mM MgCl2, 10 mM KCl (pH 7.5) and purified Hsp70i, Hsc70, Hsp70i C306, or Hsp90, was then added to a final dilution of 0.04 mg/ml. Where indicated 0.001% or 0.01% Triton X-100 (Sigma) was also added. The indicated compound or DMSO was then added at the specified concentration and each sample was added as 5 replicates to a 384 well plate (BioRad, Hercules, Calif.). A melt curve protocol (25° C. to 90° C., increasing 0.5° C. and a plate reading every 30 seconds) was run on a CFX384 Touch™ Real-Time PCR Detection System (BioRad). To determine the midpoint of the protein unfolding transition or Tm, GraphPad Prisim4 (La Jolla, Calif.) was used to normalize the melt curve and to calculate the first derivate of the melt curve, with the steepest point of the slope being the Tm.

[2] = biological target: T1, GFP-Hsp70i (Homo sapiens, UniProt P0DMV8); experiment: FLECS elution of GFP-Hsp70i from γ-phosphate-linked ATP resin; format: binding
T1 construct: host or cells: HEK 293T
Protocol: (§2) FLECS Screen: A pEGFP-tagged Hsp70i was (plasmid 15215, Addgene, Cambridge, Mass.) used in the FLECS assay and was originally cloned according to [Zeng et al. (2004). Hsp70 dynamics in vivo: effect of heat shock and protein aggregation. Journal of cell science 117, 4991-5000]. ATP used in the assay was purchased from Sigma (St. Louis, Mo.) and a 200 mM stock was prepared with low salt buffer (150 mM NaCl, 25 mM Tris, pH 7.5, 60 mM MgCl2). The γ-phosphate ATP sepharose was synthesized as previously described and stored in low salt buffer [Haystead et al. (1993). Gamma-phosphate-linked ATP-sepharose for the affinity purification of protein kinases. Rapid purification to homogeneity of skeletal muscle mitogen-activated protein kinase kinase. European journal of biochemistry/FEBS 214, 459-467]. FuGENE 6 transfection reagent (Roche, Mannheim, Germany) was used for transfection of GFP-Hsp70i into HEK 293T cells, following the manufacturer protocol. The transfection ensued for 48 hours, upon which time the cells were harvested and lysed in cell lysis buffer (150 mM NaCl, 50 mM Tris, pH 7.5, 1% Triton X-100, 1 mM EDTA, 1 mM DTT, and 1 tablet Complete Mini protease inhibitor (Roche)). Cell lysates were stored at −80° C. until further use. Upon binding the resin lysates were washed 3× with high stringency wash buffer (1 M NaCl, 25 mM Tris, pH 7.5, 60 mM MgCl2, 1 mM DTT) and 3× with low stringency wash buffer (150 mM NaCl, 25 mM Tris, pH 7.5, 60 mM MgCl2, 1 mM DTT). […]
Assembly of a focused library, consisting of 3379 purine like compounds, was described previously [Carlson et al. (2013). Fluorescence Linked Enzyme Chemoproteomic Strategy for Discovery of a Potent and Selective DAPK1 and ZIPK Inhibitor. […] The lysates were eluted from the filter plate onto a catch plate by centrifugation and the fluorescence of the eluates was measured. […] Next, the presence of GFP-Hsp70i in the eluates from the 197 primary hits was determined by Western blot. […]

[3] = system: Hsp70i, Hsc70, Grp78, Grp75, Hsp90; experiment: Elution of HEK 293T cell lysate proteins from the ATP resin (silver stain, Western blot); format: binding; conditions: Western blot
Protocol: as §2, with “DTT). Next the lysates were transferred to 0.2 μm PVDF filter 96-well plate (Corning, Corning, N.Y.) sitting on top of a black flat-bottomed 96-well catch plate (Corning).” for “DTT).”
HS-72 specifically targets Hsp70i over other members of the Hsp70 superfamily. […] To more thoroughly determine the specificity of HS-72 for Hsp70i, the HEK 293T eluates were also analyzed for other Hsp70 family members Hsc70, Grp78, and Grp75, as well as Hsp90 by Western blot. […] The linker on the resin was cleaved using sodium dithionite and the samples were subjected to SDS-PAGE and analyzed by Western blot, silver stain, and mass spectrometry. […]

[4] = system: Her2 and Akt; experiment: Degradation assay (Western blot of client proteins); format: cell-based; conditions: compound alone
Protocol: Western Blotting: SDS-PAGE was carried out using Criterion™ Cell system using pre-casted 4-20% or 4-15% Criterion™ Tris-HCl gels (BioRad, Hercules, Calif.). For Western blotting gels were run at 200V for 1 hour using the PowerPac basic power supply (BioRad, Hercules, Calif.). Next, gels were transferred to nitrocellulose for blotting at 100V for 1 hour (Fisher Scientific, Waltham, Mass.). Nitrocellulose membranes were blocked with 5% dry non-fat milk in phosphate-buffered saline (PBS) with 0.01% Tween-20 for 1 hour at room temperature. Membranes were incubated with primary antibodies (1:1000 dilution) overnight at 4° C. The next day membranes were washed 3× in PBS-Tween, incubated for 1 hour at room temperature with secondary antibodies, and further washed 3× in PBS-Tween. ECL Plus Western blotting reagent (Pierce Biotechnology, Rockford, Ill.) was used to detect antibodies. GFP, Her2, Akt, Hsp70, Hsc70, Grp78, Grp75, and Hsp90 primary antibodies and all associated secondary antibodies were purchased from Cell Signaling Technology (Danvers, Mass.).
Degradation Assay: The specified cells were seeded overnight and then treated with the indicated concentration of compound for 24 hours. The cells were then harvested and subjected to analysis by Western blot.

[5] = system: Hsp90; experiment: Thermofluor assay, Hsp90; format: binding
Protocol: as §1

[6] = system: SkBr3; experiment: Cell proliferation, SkBr3; format: cell-based
Protocol: (§3) Cell Proliferation: Cell proliferation was determined using a Hoechst stain (Sigma, St. Louis, Mo.) to quantify DNA. 5,000 cells of the designated cell line were plated in 96 well plates and treated the next day, designated as time point 0, with the indicated concentration of the specified compound maintained for the duration of the assay. At the indicated time points the media was removed and plated frozen at −80° C. Double distilled H2O was then added and the plates were incubated at 37° C. for 1 hour. After 1 hour the plates were frozen at −80° C. After freezing the plates were thawed and Hoechst stain was diluted 1:1000 in THE buffer (10 mM Tris, 2M NaCl, 1 mM Na2EDTA). The final fluorescence was measured on the Victor X2 plate reader at 355/460 nm, and cell proliferation was determined with the formula: % Cell Proliferation=100×(Sample fluorescence−background fluorescence)/(Control fluorescence−background fluorescence).

[7] = system: MCF7; experiment: Cell proliferation, MCF7; format: cell-based
Protocol: as §3

Hsp70i, sequence (P0DMV8 whole entry, the tested form may be a part): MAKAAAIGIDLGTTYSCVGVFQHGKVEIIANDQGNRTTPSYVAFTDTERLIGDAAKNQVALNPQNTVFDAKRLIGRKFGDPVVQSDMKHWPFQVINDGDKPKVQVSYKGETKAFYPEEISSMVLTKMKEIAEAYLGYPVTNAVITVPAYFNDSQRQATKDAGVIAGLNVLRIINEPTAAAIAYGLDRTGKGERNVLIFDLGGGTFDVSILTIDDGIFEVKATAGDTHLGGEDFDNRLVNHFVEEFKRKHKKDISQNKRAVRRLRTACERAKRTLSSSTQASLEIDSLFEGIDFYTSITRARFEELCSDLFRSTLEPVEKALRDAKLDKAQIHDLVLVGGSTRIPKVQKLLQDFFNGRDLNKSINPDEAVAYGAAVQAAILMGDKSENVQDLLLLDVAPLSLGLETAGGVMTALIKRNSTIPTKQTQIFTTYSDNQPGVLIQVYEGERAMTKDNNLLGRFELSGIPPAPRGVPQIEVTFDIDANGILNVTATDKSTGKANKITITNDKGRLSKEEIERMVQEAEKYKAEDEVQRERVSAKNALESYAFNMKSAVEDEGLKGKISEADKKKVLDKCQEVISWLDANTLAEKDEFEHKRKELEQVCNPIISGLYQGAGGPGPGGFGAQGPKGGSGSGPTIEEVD
T1 sequence (P0DMV8 whole entry): as the sequence (P0DMV8 whole entry, the tested form may be a part) above

SMILES: Nc1ncnc2c1ncn2[C@@H]1O[C@H](COP(=O)(O)OP(=O)(O)O)[C@@H](O)[C@H]1O [ADP, reference compound]
- effect on Tm of Hsp70i [1]: increase the Tm of Hsp70i in a dose dependent manner
- increase of the Tm of Hsp70i [1]: 2.5 °C
- nucleotide concentration needed to release bound GFP-Hsp70i from the γ-linked ATP resin [2]: mM

SMILES: Nc1ncnc2c1ncn2[C@@H]1O[C@H](COP(=O)(O)OP(=O)(O)OP(=O)(O)O)[C@@H](O)[C@H]1O [ATP, reference compound]
- effect on Tm of Hsp70i [1]: increase the Tm of Hsp70i in a dose dependent manner
- increase of the Tm of Hsp70i [1]: 3 °C
- nucleotide concentration needed to release bound GFP-Hsp70i from the γ-linked ATP resin [2]: low μM
- Hsp70 family members and Hsp90 eluted from the ATP resin [3]: All the Hsp70 family members and Hsp90 are eluted

SMILES: Cc1nn(-c2ccc(C(N)=O)c(N[C@H]3CC[C@H](O)CC3)c2)c2c1C(=O)CC(C)(C)C2 [HS-10, 2-(((1r,4r)-4-hydroxycyclohexyl)amino)-4-(3,6,6-trimethyl-4-oxo-4,5,6,7-tetrahydro-1H-indazol-1-yl)benzamide, reference compound]
- Hsp70 protein levels [4]: increased Hsp70 protein levels
- Akt and Her2 expression ([4]; BT474 breast cancer cells): induced degradation of Her2 and Akt
- increase of the Tm of Hsp90 [5]: 10.5 °C
- Tm of Hsp90 in presence of compound ([5]; from 50° C. without compound): 60.5 °C

SMILES: CCCn1c(NC(=O)[C@@H]2CCCN(c3cnccn3)C2)nc2ccccc21 [HS-71, (R)—N-(1-propyl-1H-benzo[d]imidazol-2-yl)-1-(pyrazin-2-yl)piperidine-3-carboxamide]
- cell proliferation ([6]; SkBr3, 48 and 72 hours at 25 uM and 50 uM): inhibition in proliferation
- cell proliferation ([6]; SkBr3, 24 hours): no effect on proliferation
- effect on Tm of Hsp70i [1]: does not change
- effect on Tm of the ATP bound Hsp70i ([1]; in presence of ATP): does not change
- cell proliferation ([7]; MCF7, 24 hours): no effect on proliferation
- cell proliferation ([7]; MCF7, 48 hours at 25 uM and 50 uM): inhibition
- cell proliferation, concentration with significant inhibition ([7]; MCF7, 72 hours): 50 uM alone

SMILES: NS(=O)(=O)C#Cc1ccccc1 [PES, pifithrin-μ, reference compound]
- effect on Tm of Hsp70i [1]: no dose dependent effect

SMILES: N#Cc1ccc(COC[C@H]2O[C@@H](n3c(NCc4ccc(Cl)c(Cl)c4)nc4c(N)ncnc43)[C@H](O)[C@@H]2O)cc1 [VER, VER-15508, reference compound]
- effect on Tm of Hsp70i [1]: increase
